Values quoted from earlier work, collected in US20260116929A1, “ANTI-GRAM-NEGATIVE BACTERIAL COMPOUND” (Murata Manufacturing Co., Ltd., priority 2018, published 2026).

Columns and labels:
Details in all cases: background statement
[1] = test system: gram-negative bacteria
[2] = test system: gram-positive bacteria
[3] = test system: Vibrio parahaemolyticus

Row | Compound | antimicrobial activity against gram-negative bacteria [1] | antimicrobial activity against gram-positive bacteria [2] | antimicrobial activity against Vibrio parahaemolyticus [3]
1 | C=C1NC(=O)CC[C@@H](C(=O)O)NC(=O)[C@H](NC(=O)[C@H](CCCCN)NC(=O)[C@@H](N)Cc2c[nH]c3ccccc23)CSC[C@@H](C(=O)N[C@@H]2C(=O)N3CCC[C@H]3C(=O)NCC(=O)N[C@H](C(=O)N[C@H](C(=O)N[C@@H]3C(=O)NCC(=O)N[C@@H](C)C(=O)N[C@@H](CC(C)C)C(=O)N[C@@H](CCC(N)=O)C(=O)N/C(=C/C)C(=O)N[C@H](C(=O)N[C@@H](Cc4ccccc4)C(=O)N[C@@H](CC(C)C)C(=O)N[C@@H](CCC(N)=O)C(=O)N[C@@H]4C(=O)N[C@@H](CC(C)C)C(=O)N[C@H]5C(=O)N[C@@H](CSC4C)C(=O)NC(=O)[C@H](CC(N)=O)N[C@H](C(=O)N[C@@H](CCCCN)C(=O)N[C@H](C(=O)NC(=C)C(=O)N[C@@H](CCCCN)C(=O)O)[C@@H](C)CC)CSC5C)CSC3C)C(C)C)CSC2C)N[C@@H](CC(C)C)C(=O)NC1=O (stereo partly shown) [subtilin] | not | have antimicrobial activities | 
2 | Nisin | not | has an antimicrobial activity | no antimicrobial activity
3 | entianin | not | have antimicrobial activities | 
